# Results from article PMC4575222 (ChemMedChem, 2011).
# Key:
# [1] = Metabolic stability in mouse liver microsomes; assay type: in vitro ADME; details: for Qp,h (percentage ratio of predicted clearance over plasma flow): well-stirred model; for half-life: mouse, liver microsomes
# Vero cells = experiment: Cytotoxicity against Vero cells; assay type: cell-based
Structure (SMILES),"Qp,h (percentage ratio of predicted clearance over plasma flow) ([1]; mouse liver microsomes)",half-life [1],"Half life ([1]; mouse liver microsomes, 30 min incubation)","selectivity index (SI) (Vero cells; IC50 Vero cells over MICMABA, repeat testing)","toxicity toward Vero cells from the HTS studies (Vero cells; initial HTS study, before repeat testing)"
"COc1cccc(Cc2c(C)c(C#N)c3[nH]c4ccccc4n3c2=O)c1 [3e, 3-Methyl-2-(3-methoxybenzyl)-1-oxo-1H,5H-pyrido[1,2-a]benzimidazole-4-carbonitrile]",93.5%,9.43 min,–,–,–
"Cc1c(Cc2ccccc2)c(=O)n2c([nH]c3ccccc32)c1C#N [3v, 2-Benzyl-3-methyl-1-oxo-1H,5H-pyrido[1,2-a]benzimidazole-4-carbonitrile]",94.5%,7.82 min,–,–,–
"Cc1c(Cc2cccc(C(F)(F)F)c2)c(=O)n2c([nH]c3ccccc32)c1C#N [3d, 3-Methyl-1-oxo-2-[3-(trifluoromethyl)benzyl]-1H,5H-pyrido[1,2-a]-benzimidazole-4-carbonitrile]",90.0%,15 min,–,–,–
"Cc1c(C)c(=O)n2c([nH]c3ccccc32)c1C#N [3w, 2,3-Dimethyl-1-oxo-1H,5H-pyrido[1,2-a]benzimidazole-4-carbonitrile]",72.5%,51.2 min,most stable member of the set of compounds tested,–,–
"Cc1c(Cc2ccc(Cl)cc2)c(=O)n2c([nH]c3ccccc32)c1C#N [3a, 2-(4-Chlorobenzyl)-3-methyl-1-oxo-1H,5H-pyrido[1,2-a]benzimidazole-4-carbonitrile]",95.4%,6.5 min,–,16,> 100 µm
